Values quoted from earlier work as cited in patent publication US20060134244A1, “Breast health supplement and detoxification preparations” (priority 2004, published 2006).

How the values were obtained:
[1] = oral administration; reported
[2] = system: precancerous lesions of the cervix and laryngeal papillomas; settings: pathologies with a human papillomavirus (HPV); reported

Structure (SMILES) | unabsorbed EDTA that remains within the digestive tract [1] [%] | clinical effectiveness in treating precancerous lesions of the cervix and laryngeal papillomas [2]
O=C(O)CN(CCN(CC(=O)O)CC(=O)O)CC(=O)O [EDTA, ethylenediamine-N,N,N′,N′-tetraacetic acid] | 95 | 
c1ccc2c(Cc3c[nH]c4ccccc34)c[nH]c2c1 [DIM, 3,3′-diindolylmethane] |  | clinically effective
OCc1c[nH]c2ccccc12 [Example I3C, indole-3-carbinol] |  | clinically effective
